Measured values published in EP1528931B1, “DIPEPTIDYL PEPTIDASE IV INHIBITORS FOR DECREASING THE RATE OF CHRONIC WEIGHT GAIN” (Prosidion Ltd., priority 2002, dated 2004).
Several values for one entry are separate records, joined by “and”; a condition that tells them apart may be missing. Equal values may be shown once. Ends that are not written are not given here.

Assays:
[1] = biological target: human plasma containing DP IV-activity (Homo sapiens, UniProt P27487); assay: Proteolytic processing of peptides in human plasma with or without P32/98, MALDI-TOF; details: human EDTA-plasma with 9.8 µMol/l isoleucyl thiazolidine hemifumarate
Procedure: Matrix-assisted laser desorption/ionisation mass spectrometry was carried out using the Hewlett-Packard G2025 LD-TOF System with a linear tune of flight analyzer. […] The spectrometer was calibrated externally. […] Samples of the reaction mixtures were removed at various time intervals and mixed with equal volumes of the matrix solution. By mixing assay sample and matrix, the low pH of the matrix solution stopped the enzymatic reaction. A small volume (< 1 µl) of this mixture was transferred to a probe tip and immediately evaporated in a Hewlett-Packard G2024A Sample Prep Accessory to ensure rapid and homogenous sample crystallization. All spectra were generated using automatic mode by averaging 250 single shots selected by the signal-to-noise ratio.
The DP IV used in this study was purified from porcine kidney. […] In the case of plasma, fresh prepared human EDTA-plasma from healthy subjects was used. […] Capillary zone electrophoresis (CZE) investigations were carried out using a system from Beckman. Peptides and enzymes were incubated in the capillary electrophoresis system at 37°C using a 20 mM phosphate buffer pH7.4. Decrease of substrate was determined by subsequent measurements of the same sample. Separation was carried out using a 0.1 M phosphate buffer pH 2.5, a 50 µm * 30 cm fused silica capillary and 16 kV constant voltage. Peptides were detected at 200 nm. Substrate concentrations were calculated from the height of the peptide peaks, For determination of kinetic constants the degradation velocity from at least 4 substrate concentrations were determined and fitted according the Michaelis-Menten equation using Graphit 4.0.

porcine DP IV = biological target: T1, porcine DP IV (Sus scrofa, UniProt P22411); assay: Kinetic constants of peptide degradation by DP IV, capillary zone electrophoresis (CZE); assay type: biochemical; details: 37°C, phosphate buffer pH7.4, read-out: Cleavage, porcine DP IV, Km
T1 construct: from tissue; host or cells: porcine kidney
Procedure: The DP IV used in this study was purified from porcine kidney. The specific activity measured using Gly-Pro-4-nitroanilide as a chromogenic substrate was at least 5 units/mg. […] Capillary zone electrophoresis (CZE) investigations were carried out using a system from Beckman. Peptides and enzymes were incubated in the capillary electrophoresis system at 37°C using a 20 mM phosphate buffer pH7.4. Decrease of substrate was determined by subsequent measurements of the same sample. Separation was carried out using a 0.1 M phosphate buffer pH 2.5, a 50 µm * 30 cm fused silica capillary and 16 kV constant voltage. Peptides were detected at 200 nm. Substrate concentrations were calculated from the height of the peptide peaks, For determination of kinetic constants the degradation velocity from at least 4 substrate concentrations were determined and fitted according the Michaelis-Menten equation using Graphit 4.0.

Male Zucker fa/fa rats [2] = assay: OGTT on day 21 of repeated dosing; assay type: in vivo, rat
Procedure: OGTT: A final OGTT was performed on day 21 with blood sampling from the tail vein. Blood samples from the tail vein were taken at-12 h (the night before day 21), at 0 min (immediately before the beginning of OGTT), at 10, 20, 30, 40, 50, 60, 80, 100 and 120 min. Blood samples were taken in 20 µl glass capillaries for blood glucose measurements and in Eppendorf tubes (100 µl). The latter were immediately centrifuged and the plasma fractions were stored at-20°C for insulin analysis.
(§1) Blood glucose: Glucose levels were measured using the glucose oxidase procedure (Super G Glukosemeßgerät; Dr. Müller Gerätebau, Freital, Germany).
(§2) Plasma insulin: Insulin concentrations were assayed by the antibody RIA method (LINCO Research, Inc. St Charles, Mo., USA).

Male Zucker fa/fa rats [3] = assay: Repeated once-daily dosing for 21 days: morning values and day-night profile of blood glucose and plasma insulin; assay type: in vivo, rat
Procedure: The parameters monitored were morning blood glucose and plasma insulin levels. In a day-night profile, glycemia and insulinaemia were monitored from day 16 to day 17. An OGTT was performed finally on day 21 to monitor blood glucose and plasma insulin kinetics to assess changes in glucose tolerance. Glibenclamide (DAB 1996; R011150/33372) was donated by Berlin-Chemie (Berlin, Germany). Male Zucker (fa/fa) rats of the body Weight class of 300g were purchased from Charles River (Sulzfeld, Germany).
Housing Conditions: Animals were kept single-housed under conventional conditions with controlled temperature (22±2 °C) on a 12/12 hours light/dark cycle (light on at 06:00 a.m.). Standard pellets (ssniff®, Soest, Germany) and tap water acidified with HCl were allowed ad libitum.
Catheterization of Carotid Artery: After one week of adaptation carotid catheters were implanted in the rats under general anesthesia (injection of 0.25 ml/kg i.p. Rompun® [2%], Bayer, Germany) and 0.5 ml/kg i.p. Velonarkon® (Arzneimittelwerk Dresden, Germany). The animals were allowed to recover for one week. The catheter was flushed with heparin-saline (104 IU/ml) three times per week.
Thereafter, the non-diabetic Wistar rats were treated orally once daily with RP (5 mg/kg b.w.) or TP (21.51 mg/kg b.w.) and the diabetic Zucker rats were treated orally once daily with RP (1 mg/kg b.w.) or TP (21.61 mg/kg b.w.) for 21 days at 05.00 p.m. (before regular food intake in the dark phase). The controls were given 1% cellulose solution orally (5 ml/kg). Blood samples were taken every morning at 07.30 a.m. from tail veins for measurement of blood glucose and plasma insulin. The last blood samples of this part of the program were taken at 07.30 a.m. on the 15th day to measure blood glucose and plasma insulin. The oral drug therapy was continued for one week. Recording the day-night profile under the above therapy blood glucose (Δt ≡ 3 h) and plasma insulin (Δt = 3-6 h) wore monitored from day 16 (at b5.40 p.m. beginning) to day 17 (at 02.00 p.m. end).
as §1, §2

[4] = tested on: human plasma containing DP IV-activity; assay: Proteolytic processing of peptides in human plasma with or without P32/98, MALDI-TOF; assay type: in vitro ADME; details: inhibitor 9.8 µMol/l
Description: The instrument was equipped with a 337 nm nitrogen laser, a potential acceleration source (5 kV) and a 1.0 m flight tube. […] The spectrometer was calibrated externally.
Peptides were detected at 200 nm.

T1 sequence (P22411 whole entry): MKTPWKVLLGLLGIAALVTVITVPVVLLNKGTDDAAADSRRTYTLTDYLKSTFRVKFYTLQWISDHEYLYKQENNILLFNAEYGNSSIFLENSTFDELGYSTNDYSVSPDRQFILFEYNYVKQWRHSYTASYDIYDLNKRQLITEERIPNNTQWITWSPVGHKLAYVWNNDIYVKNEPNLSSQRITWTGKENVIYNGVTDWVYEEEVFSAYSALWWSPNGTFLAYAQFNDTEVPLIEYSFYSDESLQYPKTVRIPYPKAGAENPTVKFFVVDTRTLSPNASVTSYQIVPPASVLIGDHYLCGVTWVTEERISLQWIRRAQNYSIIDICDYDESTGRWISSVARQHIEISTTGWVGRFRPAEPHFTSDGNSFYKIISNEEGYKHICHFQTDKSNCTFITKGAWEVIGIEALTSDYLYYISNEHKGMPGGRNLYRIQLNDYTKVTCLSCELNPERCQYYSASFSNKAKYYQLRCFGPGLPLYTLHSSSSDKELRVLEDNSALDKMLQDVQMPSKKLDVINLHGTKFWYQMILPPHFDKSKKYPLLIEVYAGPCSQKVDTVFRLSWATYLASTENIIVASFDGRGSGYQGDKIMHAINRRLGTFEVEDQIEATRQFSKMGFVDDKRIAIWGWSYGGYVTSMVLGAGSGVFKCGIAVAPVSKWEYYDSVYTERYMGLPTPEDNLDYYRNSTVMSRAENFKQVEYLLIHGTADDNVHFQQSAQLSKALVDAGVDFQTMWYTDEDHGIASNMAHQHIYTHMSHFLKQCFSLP
Sequence of human plasma containing DP IV-activity (Homo sapiens, UniProt P27487) (P27487 39-766 limits assumed): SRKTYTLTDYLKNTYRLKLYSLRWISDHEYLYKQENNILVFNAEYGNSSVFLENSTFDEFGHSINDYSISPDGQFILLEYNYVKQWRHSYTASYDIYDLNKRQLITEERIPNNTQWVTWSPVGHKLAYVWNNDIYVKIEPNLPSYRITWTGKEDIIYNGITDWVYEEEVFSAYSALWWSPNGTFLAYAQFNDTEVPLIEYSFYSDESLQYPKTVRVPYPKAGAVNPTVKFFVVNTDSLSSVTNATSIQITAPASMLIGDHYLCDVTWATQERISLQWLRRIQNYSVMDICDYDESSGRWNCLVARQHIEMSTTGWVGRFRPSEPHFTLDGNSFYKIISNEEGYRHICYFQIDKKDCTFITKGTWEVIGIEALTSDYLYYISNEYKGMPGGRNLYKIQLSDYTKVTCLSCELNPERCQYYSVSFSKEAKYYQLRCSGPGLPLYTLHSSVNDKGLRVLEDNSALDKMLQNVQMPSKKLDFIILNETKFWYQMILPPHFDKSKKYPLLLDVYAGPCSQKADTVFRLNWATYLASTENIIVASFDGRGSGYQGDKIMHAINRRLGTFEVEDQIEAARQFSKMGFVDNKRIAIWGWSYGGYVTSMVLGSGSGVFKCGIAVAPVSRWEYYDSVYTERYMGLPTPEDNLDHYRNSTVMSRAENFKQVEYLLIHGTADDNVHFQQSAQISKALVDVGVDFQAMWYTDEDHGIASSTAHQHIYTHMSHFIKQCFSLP

Gastrin releasing peptide (VPLPAGGGTVLTKMYPRGNHWAVGHLM; ends and bridges not checked; UniProt P07492 24-50, looked up) [Gastrin releasing peptide (GRP)]
Cleavage, human plasma +P32/98 [1]: ø

Pituitary adenylate cyclase activating polypeptide 27
Cleavage, human plasma +P32/98 [1]: ø

Peptide histidin methionine [Peptide histidin methionine (PHM)]
Cleavage, human plasma +P32/98 [1]: ø
Km (porcine DP IV): 35 µM

Somatostatin 14
Km (porcine DP IV): 42 µM

Cholecystokinin [Cholecystokinin (CCK21)]
Cleavage, human plasma +P32/98 [1]: slow unspecific degradation by aminopeptidases and ø

Secretin
Cleavage, human plasma +P32/98 [1]: ø

COc1ccc(Cl)cc1C(=O)NCCc1ccc(S(=O)(=O)NC(=O)NC2CCCCC2)cc1 [glibenclamide]
Glycemia at last drug application before overnight fasting (Male Zucker fa/fa rats [2]; 05.00 p.m., night before day 21): 8.81 ± 1.21 mmol/L
Blood glucose increase after the glucose load (Male Zucker fa/fa rats [2]; OGTT day 21): about 11 mmol/l
glucose area under the curve (G-AUC0-120 min) (Male Zucker fa/fa rats [2]; OGTT day 21): 1096 ± 76 mmol·min/L
Glycemia after overnight fasting (basal, before OGTT) (Male Zucker fa/fa rats [2]; day 21, 07.30 a.m.): 4.91 ± 0.37 mmol/L
OGTT blood glucose (Male Zucker fa/fa rats [2]; day 21, 50 min): 16.33 ± 0.98 mmol/L
OGTT blood glucose (Male Zucker fa/fa rats [2]; day 21, 80 min): 16.24 ± 1.09 mmol/L
OGTT blood glucose (Male Zucker fa/fa rats [2]; day 21, 100 min): 15.13 ± 0.76 mmol/L
OGTT blood glucose (Male Zucker fa/fa rats [2]; day 21, 120 min): 14.81 ± 0.66 mmol/L
Fasting plasma insulin at the beginning of the OGTT (Male Zucker fa/fa rats [2]; day 21, overnight fasting, listed as RP): 11.8±1.5 ng/ml and ~ 12.5 ng/ml
Day-night profile: mean blood glucose (Male Zucker fa/fa rats [3]; Zucker rats, 02.00 p.m. next day): 7.34 ± 0.77 mmol/L
Day-night profile: plasma insulin (Male Zucker fa/fa rats [3]; Zucker rats, 02.00 p.m. the next day): 58.3 ± 7.3 ng/mL
Day-night profile: plasma insulin (Male Zucker fa/fa rats [3]; Zucker rats, day 16, 05.00 p.m.): 50.0 ± 8.2 ng/mL
Day-night profile: mean blood glucose (Male Zucker fa/fa rats [3]; Zucker rats, day 16, 05.00 p.m., RP 1 mg/kg or TP 21.61 mg/kg orally once daily): 7.96 ± 1.13 mmol/L
Day-night profile: plasma insulin (Male Zucker fa/fa rats [3]; Zucker rats, day 16, 08.00 p.m.): 57.3 ± 8.2 ng/mL
Day-night profile: mean blood glucose (Male Zucker fa/fa rats [3]; Zucker rats, day 16, 11.00 p.m.): 14.80 ± 1.46 mmol/L
Day-night profile: plasma insulin (Male Zucker fa/fa rats [3]; Zucker rats, day 17, 05.00 a.m.): 76.3 ± 8.6 ng/mL
Day-night profile: mean blood glucose (Male Zucker fa/fa rats [3]; Zucker rats, day 17, 11.00 a.m.): 7.66 ± 1.22 mmol/L
Increase of morning blood glucose (Male Zucker fa/fa rats [3]; Zucker rats, within two days of therapy): about 1.5 mmol/l
Increase of insulin output (Male Zucker fa/fa rats [3]; obese Zucker rat, subchronic treatment, total daily insulin secretion): 27%

Somatostatin 28
Km (porcine DP IV): 6 µM

Di-[2S,3S]-2-Amino-3-methyl-pentanoic-1,3-thiazolidine fumarate [P32/98]
Hydrolysis of gastrointestinal peptides in human plasma [4]: blocked
